Assay results as given in PubChem BioAssay AID179 (DTP/NCI, 2004).
Calls of active or inactive are those of the source.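 Rule for the calls: active = compounds giving half or more protection of infected cells from virus-caused growth loss, again on retest; inactive = the rest.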 Where a SMILES comes first, the peptide text is derived from it. Bridges are numbered along the chain shown (N, C = ends). [ ]: non-standard residue; d: D form. Aib = CC(C)(N)C(=O)O; βAla = NCCC(=O)O

Tested on: CEM cells HIV-1 protection, formazan growth assay
Assay: NCI AIDS Antiviral Assay
Settings: for IC50: measured here: growth of uninfected CEM cells
Summary of the method: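 Category rules: moderately active means at least 50% protection on retest, and confirmed active means 100% protection reproducibly. The underlying data came from a formazan growth assay in HIV-1-infected CEM cells.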

Row | Compound | EC50 [µM] | IC50 [µM] | outcome
1 | COC(=O)Cc1c(-c2c(CC(=O)OC)c3ccccc3n2C2OC(COC3OC(COC(C)=O)C(OC(C)=O)C(OC(C)=O)C3OC(C)=O)C(O)C(O)C2O)[nH]c2ccccc12 (stereo not drawn) | 105 | 151 | –
2 | O=C(c1no[n+]([O-])c1C(=O)c1csc2ccccc12)c1csc2ccccc12 | > 200 | 1.05 | –
3 | N#CC(C#N)=c1ccc(=C(C#N)C#N)c2nsnc12 | > 38 | > 38 | –
4 | O=C(O)c1ccccc1-c1c2ccc(=O)c(Cl)c-2oc2c(Cl)c(O)ccc12 | 17.8 | 56.2 | –
5 | COc1ccc2nc(C)cc(NCCCCCCCCCNc3cc(C)nc4ccc(OC)cc34)c2c1 | > 33.1 | 0.891 | –
6 | N#CCCN(CCC#N)c1ccc(/C=C2\N=C(c3ccccc3)N(c3ccc(C(=O)O)cc3)C2=O)cc1 | > 200 | 33.9 | –
7 | C/C(=C\CNc1ncnc2c1ncn2CCC(=O)OC(C)(C)C)CO | > 200 | > 200 | –
8 | COc1cc2c(SCCN(C)C)nc3ccccc3c2c2ccccc12 | – | – | inactive
9 | CC1(C)NC(=O)C(NC(=O)C(N)CC(=O)O)CCCCNC(=O)CCNC1=O (stereo not drawn) (H-DK[Aib][βAla]; lactam 2-C; configuration not given here) | > 200 | > 200 | –
10 | COc1cccc(C2c3cc4c(cc3OC(C)(O)C2C)OCO4)c1O (stereo not drawn) | > 200 | 0.646 | –
11 | CC(=O)Oc1cc(C)c2c(c1)CCC1C3CCC(OC(C)=O)C3(C)CC(O[N+](=O)[O-])C21O (stereo not drawn) | > 200 | > 200 | –
12 | COC(=O)C1CCC(=O)N1C(c1ccccc1)c1ccc(OC)c(OC)c1 (stereo not drawn) | > 200 | > 200 | –
13 | NC(Cc1ccc2nc3c4ccccc4c(=O)cc-3oc2c1)C(=O)O (stereo not drawn) | > 200 | 34.7 | –
14 | O=c1c(=O)c2cc(O)ccc12 | > 1700 | 282 | –
15 | CCOP(=O)(OCC)/C(C#N)=C/c1ccccc1Cl | – | – | inactive
16 | O=C1NC2(CCCCC2)C2=C1CCCCC2 | – | – | inactive
17 | C[C@H]1OC(=O)[C@@H]2N=NN(Cc3ccccc3)[C@H]12 | – | – | inactive

Row | Compound | EC50 [µM] | IC50 [µM] | outcome
18 | COC(=O)CCCc1ccc2c(c1)CC1(Cc3ccccc3C1)C2 | > 200 | > 200 | –
19 | COc1ccc([C@@H]2CC(=O)N2)cc1 | > 200 | > 200 | –
20 | COC(=O)[C@H](Cc1c[nH]c2ccccc12)NP(=O)(OC)OCC1OC(n2cc(C)c(=O)[nH]c2=O)CC1N=[N+]=[N-] (stereo partly drawn) | 69.2 | > 200 | –
21 | COCOC1/C=C/CCCCC(=O)C(C)C#CC1 (stereo not drawn) | > 200 | 7.24 | –
22 | Cc1ccccc1-n1c(=S)[nH]c2c(sc(=O)n2-c2ccccc2C)c1=O | > 3.8 | > 3.8 | –
23 | Cc1cccc(/C=N/NC(=S)Nc2ccc(Cl)cc2)n1 | > 200 | 3.16 | –
24 | O=C1c2ccccc2C(=O)N1CCn1nc(-c2ccccc2)cc(-c2ccccc2)c1=O | > 12.3 | > 12.3 | –
25 | O=c1/c(=C/c2ccc3c(c2)OCO3)sc2nnc(Cc3ccccc3)n12 | > 20 | > 20 | –
26 | CC1(c2ccccc2)CC12C(=O)NC(=O)NC2=O (stereo not drawn) | > 107 | > 107 | –
27 | Cc1ccc(C2=NOC(=O)[C@@H]3CCCC[C@@H]23)cc1 | > 200 | 97.7 | –
28 | CC(=O)O[C@H]1CCC2[C@@H]3CCC4=C(O)c5nocc5C[C@]4(C)C3CC[C@@]21C (stereo partly drawn) | > 70.8 | – | –
29 | CCOC(=O)c1[nH]n(-c2ccccc2)c(=O)c1/C=N/C(=S)Nc1ccc(Cl)cc1Cl | > 200 | > 200 | –
30 | O=C(SC1=NCCN1)c1cccc2ccccc12 | > 200 | 28.8 | –
31 | COc1ccc(C2c3cc(OC)c(OC)cc3C(Cc3ccc([N+](=O)[O-])cc3)C2c2ccc([N+](=O)[O-])cc2)cc1OC (stereo not drawn) | > 2.51 | > 2.51 | –
32 | CCOC(=O)C(C(=O)OCC)S(C)(=O)=O | > 251 | > 251 | –
33 | COc1cccc(N=N/C(=N/NC(=O)c2cc(Cl)ccc2O)c2ccc(N(CCC#N)CCC#N)cc2C)c1 | > 200 | 29.5 | –
34 | O=S1(=O)OCCOS(=O)(=O)C1Br | > 891 | 331 | –
